# Literature values as cited in patent US20090068264A1, “Clinical Applications of Tetrahydrobiopterin, Lipoic Acid and Their Salts and Methods of Preparing Tetrahydrobiopterin Bis-Lipoate” (ChronoRX LLC, priority 2005, published 2009).
# Tested on: cerebral ischemia-reperfusion
# Conditions: animal studies of cerebral ischemia; after LA pretreatment; reduced from 78% without pretreatment
smiles,measurement,value
"O=C(O)CCCCC1CCSS1 (stereo not shown) [LA, 1,2-dithiolane-3-pentanoic acid]",mortality rate during 24 hours of reperfusion,26%
